Test results from patent US9133155B2, “Antibacterial agents: high-potency myxopyronin derivatives” (Rutgers, The State University of New Jersey, priority 2010, dated 2015).
pIC50: −log10 of the molar value. Values after ≈ are worked out from the molar mass of the structure shown. Like-named read-outs stand apart in the source and are kept apart here.

Key:
[1] = Tolerability upon intravenous injection (peritonitis model study); type: in vivo, Swiss Webster mice; details: daily total doses of at least 30 mg/kg; vehicles containing 9% to 19% dimethylacetamide and 8% to 16% Cremophor EL
Protocol: (§1) Female Swiss Webster mice were experimentally infected by intraperitoneal administration of 5×10^7 colony forming units of Staphylococcus aureus in 10% hog gastric mucin. Test compounds (2-3 mg/ml in vehicle [9-19% dimethyacetamide/8-16% Cremophor EL in water, v/v]), positive controls (2 mg/ml vancomycin in vehicle), and negative controls (vehicle only and saline only), were administered by intravenous injection into a tail vein 1 h and 5 h post-infection (200 μl per injection). Survival was monitored for 12 h post-infection, or for 24, 48, and 72 h post-infection. At the end of the monitoring period, surviving animals were euthanized.

Staphylococcus aureus = assay: Antibacterial efficacy in mouse model of Staphylococcus aureus systemic infection (peritonitis model); type: in vivo, Swiss Webster mice; details: for effect on survival in a mouse model of Staphylococcus aureus infection (in words): summary of Tables 4a-4c
Protocol: as §1

S. aureus RNA polymerase = S. aureus RNA polymerase (Staphylococcus aureus, UniProt P47768+Q2G0N5); assay: Inhibition of Staphylococcus aureus RNA polymerase (fluorescence-detected); type: biochemical
Chain of S. aureus RNA polymerase (P0A0J0 whole entry): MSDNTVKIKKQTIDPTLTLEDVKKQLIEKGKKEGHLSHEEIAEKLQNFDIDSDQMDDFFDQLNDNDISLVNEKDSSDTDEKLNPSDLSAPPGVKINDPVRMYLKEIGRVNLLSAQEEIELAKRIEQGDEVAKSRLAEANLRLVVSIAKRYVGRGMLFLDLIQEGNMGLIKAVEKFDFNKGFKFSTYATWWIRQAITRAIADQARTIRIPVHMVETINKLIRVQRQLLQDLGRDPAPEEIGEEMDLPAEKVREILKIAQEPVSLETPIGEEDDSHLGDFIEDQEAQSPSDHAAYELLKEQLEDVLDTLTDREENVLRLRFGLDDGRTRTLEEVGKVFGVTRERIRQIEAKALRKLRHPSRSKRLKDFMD
Chain of S. aureus RNA polymerase (Q2G0N5 whole entry): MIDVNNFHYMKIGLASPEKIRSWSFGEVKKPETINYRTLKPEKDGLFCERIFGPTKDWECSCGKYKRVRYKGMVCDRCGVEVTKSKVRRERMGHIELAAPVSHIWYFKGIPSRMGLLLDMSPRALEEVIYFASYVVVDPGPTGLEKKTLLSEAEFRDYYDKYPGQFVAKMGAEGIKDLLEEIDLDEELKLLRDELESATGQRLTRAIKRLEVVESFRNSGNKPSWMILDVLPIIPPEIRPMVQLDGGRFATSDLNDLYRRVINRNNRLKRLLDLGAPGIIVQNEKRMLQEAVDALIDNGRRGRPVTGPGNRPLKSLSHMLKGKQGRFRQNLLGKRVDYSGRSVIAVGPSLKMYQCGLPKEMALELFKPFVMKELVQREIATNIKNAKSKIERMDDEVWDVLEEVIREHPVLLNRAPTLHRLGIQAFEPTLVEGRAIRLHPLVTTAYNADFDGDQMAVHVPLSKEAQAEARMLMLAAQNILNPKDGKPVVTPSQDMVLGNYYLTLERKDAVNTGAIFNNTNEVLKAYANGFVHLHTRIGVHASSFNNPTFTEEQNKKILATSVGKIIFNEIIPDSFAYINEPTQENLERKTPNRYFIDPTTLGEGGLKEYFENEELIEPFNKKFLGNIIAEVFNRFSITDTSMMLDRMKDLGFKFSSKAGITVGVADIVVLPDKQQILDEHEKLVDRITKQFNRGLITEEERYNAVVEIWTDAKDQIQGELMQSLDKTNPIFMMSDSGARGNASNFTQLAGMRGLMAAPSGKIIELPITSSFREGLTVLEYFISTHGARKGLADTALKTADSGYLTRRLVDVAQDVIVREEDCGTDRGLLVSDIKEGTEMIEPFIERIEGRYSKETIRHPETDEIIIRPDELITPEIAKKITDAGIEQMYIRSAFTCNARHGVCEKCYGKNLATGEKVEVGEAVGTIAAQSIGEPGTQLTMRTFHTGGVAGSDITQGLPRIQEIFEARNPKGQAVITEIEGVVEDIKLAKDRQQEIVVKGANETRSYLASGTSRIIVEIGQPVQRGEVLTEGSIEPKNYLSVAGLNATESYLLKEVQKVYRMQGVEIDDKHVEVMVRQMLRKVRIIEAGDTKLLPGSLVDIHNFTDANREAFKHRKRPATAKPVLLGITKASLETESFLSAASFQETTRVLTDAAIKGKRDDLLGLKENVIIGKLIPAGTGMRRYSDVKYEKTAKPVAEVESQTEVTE
Chain of S. aureus RNA polymerase (Q2FW32 whole entry, further chain): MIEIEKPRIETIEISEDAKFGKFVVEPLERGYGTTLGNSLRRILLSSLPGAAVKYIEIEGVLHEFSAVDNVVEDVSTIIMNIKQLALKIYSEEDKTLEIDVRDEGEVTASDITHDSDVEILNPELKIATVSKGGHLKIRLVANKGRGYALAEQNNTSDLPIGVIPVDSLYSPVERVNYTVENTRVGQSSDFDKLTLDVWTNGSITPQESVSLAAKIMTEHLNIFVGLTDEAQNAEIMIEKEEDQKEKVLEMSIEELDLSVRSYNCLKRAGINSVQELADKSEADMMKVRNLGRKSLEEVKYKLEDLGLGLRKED
Chain of S. aureus RNA polymerase (P47768 whole entry): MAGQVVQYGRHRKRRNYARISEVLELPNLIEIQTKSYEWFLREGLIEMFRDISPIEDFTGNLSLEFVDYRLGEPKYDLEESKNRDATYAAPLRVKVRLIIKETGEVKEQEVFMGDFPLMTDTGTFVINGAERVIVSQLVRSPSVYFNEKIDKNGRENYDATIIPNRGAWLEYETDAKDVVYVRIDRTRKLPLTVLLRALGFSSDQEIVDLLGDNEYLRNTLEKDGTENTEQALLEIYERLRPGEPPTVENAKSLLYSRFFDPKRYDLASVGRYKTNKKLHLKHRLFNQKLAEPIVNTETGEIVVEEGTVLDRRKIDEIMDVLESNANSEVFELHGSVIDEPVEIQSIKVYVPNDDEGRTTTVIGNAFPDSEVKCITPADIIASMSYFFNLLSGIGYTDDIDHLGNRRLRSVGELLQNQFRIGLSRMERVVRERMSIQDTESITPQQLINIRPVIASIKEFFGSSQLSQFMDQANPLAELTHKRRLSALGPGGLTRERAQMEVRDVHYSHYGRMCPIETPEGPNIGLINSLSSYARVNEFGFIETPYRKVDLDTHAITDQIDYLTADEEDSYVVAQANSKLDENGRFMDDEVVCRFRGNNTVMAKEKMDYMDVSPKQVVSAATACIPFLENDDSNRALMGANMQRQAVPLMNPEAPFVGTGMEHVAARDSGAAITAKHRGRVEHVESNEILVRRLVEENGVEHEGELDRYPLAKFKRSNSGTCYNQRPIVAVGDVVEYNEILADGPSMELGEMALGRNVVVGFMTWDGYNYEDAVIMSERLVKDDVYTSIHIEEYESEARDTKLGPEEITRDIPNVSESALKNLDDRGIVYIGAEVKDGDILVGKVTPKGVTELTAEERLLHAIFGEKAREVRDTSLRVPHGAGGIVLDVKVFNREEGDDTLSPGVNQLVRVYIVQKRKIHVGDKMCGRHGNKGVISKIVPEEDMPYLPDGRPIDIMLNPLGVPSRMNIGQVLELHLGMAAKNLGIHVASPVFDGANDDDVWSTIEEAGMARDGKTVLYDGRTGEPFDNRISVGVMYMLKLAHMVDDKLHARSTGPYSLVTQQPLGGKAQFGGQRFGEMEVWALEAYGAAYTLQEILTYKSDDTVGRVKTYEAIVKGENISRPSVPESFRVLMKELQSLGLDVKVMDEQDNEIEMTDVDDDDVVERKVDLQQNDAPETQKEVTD

[2] = test system: Acinetobacter baumannii ATCC 19606; assay: Inhibition of bacterial growth in culture (MIC, spiral gradient endpoint); type: cell-based; details: for MIC: Acinetobacter baumannii, ATCC19606, Mueller-Hinton II agar, 16 h at 37° C.
Source text: (§2) Minimum inhibitory concentrations (MICs) for Staphylococcus aureus ATCC 12600, Enterococcus faecalis ATCC 19433, Acinetobacter baumannii ATCC 19606, and Escherichia coli D21f2tolC were quantified using spiral gradient endpoint assays, essentially as described [Wallace, A. and Corkill, J. (1989) Application of the spiral plating method to study antimicrobial action. J. Microbiol. Meths. […] Int. J. Exp. Clin. Chemother. 3, 31-38; Schalkowsky S. (1994) Measures of susceptibility from a spiral gradient of drug concentrations. Adv. Exp. Med. Biol. 349, 107-120]. Assays employed exponential-gradient plates containing 150 mm×4 mm Mueller-Hinton II cation-adjusted agar and 0.4-100 μg/ml of test compound. Plates were prepared using an Autoplate 4000 spiral plater (Spiral Biotech, Inc.). Saturated overnight cultures were swabbed radially onto plates, and plates were incubated for 16 h at 37° C. For each culture, the streak length was measured using a clear plastic template (Spiral Biotech, Inc.), the test-compound concentration at the streak endpoint was calculated using the program SGE (Spiral Biotech, Inc.), and the MIC was defined as the calculated test-compound concentration at the streak endpoint.

[3] = test system: Staphylococcus aureus ATCC 12600; assay: as above; type: cell-based; details: for MIC: Staphylococcus aureus, ATCC12600, Mueller-Hinton II agar, 16 h at 37° C., read-out: MIC S. aureus 12600
Source text: as §2

[4] = test system: Enterococcus faecalis ATCC 19433; assay: as above; type: cell-based; details: for MIC: Enterococcus faecalis, ATCC19433, Mueller-Hinton II agar, 16 h at 37° C., read-out: MIC E. faecalis 19433
Source text: as §2

[5] = test system: Escherichia coli D21f2tolC; assay: as above; type: cell-based; details: 16 h, read-out: MIC E. coli D21f2tolC
Source text: as §2

[6] = molecular target: E. coli RNA polymerase σ^70 holoenzyme (Escherichia coli, UniProt P0A8T7+P0A8V2); assay: Inhibition of Escherichia coli RNA polymerase (fluorescence-detected); type: biochemical; details: read-out: IC50 E. coli RNAP
Protocol: (§3) Fluorescence-detected RNA polymerase assays with E. coli RNA polymerase were performed by a modification of the procedure of Kuhlman et al., 2004 [Kuhlman, P., Duff, H. & Galant, A. (2004) A fluorescence-based assay for multisubunit DNA-dependent RNA polymerases. Anal. Biochem. 324, 183-190]. Reaction mixtures contained (20 μl): 0-100 nM test compound, 75 nM E. coli RNA polymerase σ^70 holoenzyme, 20 nM 384 bp DNA fragment containing the bacteriophage T4 N25 promoter, 100 μM ATP, 100 μM GTP, 100 μM UTP, 100 μM CTP, 50 mM Tris-HCl, pH 8.0, 100 mM KCl, 10 mM MgCl2, 1 mM DTT, 10 μg/ml bovine serum albumin, and 5.5% glycerol. Reaction components other than DNA and NTPs were pre-incubated for 10 min at 37° C. Reactions were carried out by addition of DNA and incubation for 5 min at 37° C., followed by addition of NTPs and incubation for 60 min at 37° C. DNA was removed by addition of 1 μl 5 mM CaCl2 and 2 U DNaseI (Ambion, Inc.), followed by incubation for 90 min at 37° C. RNA was quantified by addition of 100 μl RiboGreen RNA Quantitation Reagent (Invitrogen, Inc.; 1:500 dilution in Tris-HCl, pH 8.0, 1 mM EDTA), followed by incubation for 10 min at 25° C., followed by measurement of fluorescence intensity [excitation wavelength=485 nm and emission wavelength=535 nm; QuantaMaster QM1 spectrofluorometer (PTI, Inc.)].

[7] = molecular target: M. tuberculosis RNA polymerase (Mycobacterium tuberculosis, UniProt P9WGY7+P9WGY9); assay: Inhibition of Mycobacterium tuberculosis RNA polymerase (fluorescence-detected); type: biochemical
Protocol: as §3
Fluorescence-detected RNA polymerase assays with M. tuberculosis RNA polymerase were performed as in Example 17.1, using reaction mixtures containing (20 μl): 0-100 nM test compound, 75 nM M. tuberculosis RNA polymerase core enzyme, 300 nM M. tuberculosis σ^A, 20 nM 384 bp DNA fragment containing the bacteriophage […] N25 promoter, 100 μM ATP, 100 μM GTP, 100 μM UTP, 100 μM CTP, 40 mM Tris-HCl, pH 8.0, 80 mM NaCl, 5 mM MgCl2, 2.5 mM DTT, and 12.7% glycerol.

[8] = Table 4c, total dose 50 mg/kg iv, vehicle 9% dimethylacetamide/8% Cremophor EL/83% water

SMILES	acute toxicity upon intravenous injection [1]	12-hour survival (Staphylococcus aureus; Table 4b, total dose 50 mg/kg iv, vehicle 19% dimethylacetamide/16% Cremophor EL/73% water) [%]	24-hour survival (Staphylococcus aureus; [8]) [%]	48-hour survival (Staphylococcus aureus; [8]) [%]	72-hour survival (Staphylococcus aureus; [8]) [%]	effect on survival in a mouse model of Staphylococcus aureus infection (in words) (Staphylococcus aureus)	pIC50 (S. aureus RNA polymerase)	MIC [2] [µg/mL]	inhibition of Acinetobacter baumannii (in words) ([2]; summary of Table 3)	MIC [3] [µg/mL]	MIC [4] [µg/mL]	MIC [5] [µg/mL]	pIC50 [6]	pIC50 [7]	12-hour survival (Staphylococcus aureus; Table 4a, total dose 30 mg/kg iv, 1 h and 5 h post-infection, vehicle 19% dimethylacetamide/8% Cremophor EL/73% water) [%]	pIC50 (S. aureus RNA polymerase; read-out: IC50 S. aureus RNAP)	inhibition of Staphylococcus aureus compared with Myx B and 7-desmethyl-Myx B ([3]; summary of Table 3)	inhibition of Enterococcus faecalis compared with Myx B and 7-desmethyl-Myx B ([4]; summary of Table 3)	pIC50 ([7]; read-out: IC50 M. tuberculosis RNAP)
CCCC/C(C)=C/C=C(\C)C(=O)c1c(O)cc(C(C)CC/C=C/NC(=O)OC)oc1=O (centres unmarked) [Myx B, Methyl ((E)-5-(3-((2E,4E)-2,5-dimethylnona-2,4-dienoyl)-4-hydroxy-2-oxo-2H-pyran-6-yl)hex-1-en-1-yl)carbamate, reference compound]	tolerated without acute toxicity	50	75	50	50	increase survival	7.18	> 40	not detectably inhibited	0.78 (≈ 1.81 µM)	13 (≈ 30.1 µM)	0.098 (≈ 0.227 µM)	7.89	6.89	–	–	–	–	–
CCCCC/C(C)=C/C=C(\C)C(=O)c1c(O)cc(CCC/C=C/NC(=O)OC)oc1=O [compound 5, Methyl ((E)-5-(3-((2E,4E)-2,5-dimethyldeca-2,4-dienoyl)-4-hydroxy-2-oxo-2H-pyran-6-yl)pent-1-en-1-yl)carbamate]	tolerated without acute toxicity	–	–	–	–	increase survival	–	19 (≈ 44 µM)	–	0.44 (≈ 1.02 µM)	12 (≈ 27.8 µM)	0.076 (≈ 0.176 µM)	8.41	–	100	7.82	more potently than Myx B and 7-desmethyl-Myx B	more potently than Myx B and 7-desmethyl-Myx B	7.49
